Among the data in US20190031665A1, “DERIVATIVES OF PYRROLOIMIDAZOLE OR ANALOGUES THEREOF WHICH ARE USEFUL FOR THE TREATMENT OF INTER ALIA CANCER” (EMCURE PHARMACEUTICALS LIMITED, priority 2016, published 2019) are inhibition and IC50 values, retold here.

The target in assay [1] is T1, human tryptophan 2,3-dioxygenase (hTDO) (Homo sapiens, UniProt P48775).
T1 construct: His tag (N); purchased BPS Bioscience, San Diego, Calif., USA; host or cells: E. coli
In words: In-vitro human tryptophan 2,3-dioxygenase (TDO) enzyme assay. Format: biochemical. The settings on record: for inhibition at 1 µM: hTDO enzyme at 1.0 μM concentration; for inhibition at 10 µM: hTDO enzyme at 10.0 μM concentration. The method, then: In the in-vitro human tryptophan 2,3-dioxygenase (hTDO) enzyme assay for screening inhibitor compounds, hTDO with an N-terminal histidine tag expressed and purified from E. coli (BPS Bioscience, San Diego, Calif., USA) was used. All other materials were procured from Sigma-Aldrich, St. Louis, Mo., USA.
The assay monitoring method for the conversion of L-tryptophan to N-formylkynurenine by hTDO was carried out as follows. hTDO (125 ng) was incubated in the presence of 200 μM L-tryptophan, 100 mM sodium phosphate buffer (pH 7.0), 0.01% Tween-20 and 100 μM ascorbic acid at about 37° C. for about 60 minutes. The reaction was terminated with 200 mM piperidine (PIP) and further incubated at about 65° C. for about 20 minutes to convert N-formylkynurenine (NFK) to NFK-PIP. The reaction mixture was then incubated at room temperature for about 75 minutes. The fluorescence intensity was read in a fluorescence microplate reader at an excitation wavelength of 400 nm and emission wavelength of 500 nm. Percent inhibition at each concentration of test compounds was determined by estimating the decrease in NFK-PIP. Data were analyzed using nonlinear regression to generate IC50 values using Graph Pad Prism® 6.

For assay [2], the target named is T2, human indoleamine 2,3-dioxygenase 1 (hIDO1) (Homo sapiens, UniProt P14902).
T2 construct: His tag (N); purchased BPS Bioscience, San Diego, Calif., USA; host or cells: E. coli
T2 sequence (P14902 whole entry): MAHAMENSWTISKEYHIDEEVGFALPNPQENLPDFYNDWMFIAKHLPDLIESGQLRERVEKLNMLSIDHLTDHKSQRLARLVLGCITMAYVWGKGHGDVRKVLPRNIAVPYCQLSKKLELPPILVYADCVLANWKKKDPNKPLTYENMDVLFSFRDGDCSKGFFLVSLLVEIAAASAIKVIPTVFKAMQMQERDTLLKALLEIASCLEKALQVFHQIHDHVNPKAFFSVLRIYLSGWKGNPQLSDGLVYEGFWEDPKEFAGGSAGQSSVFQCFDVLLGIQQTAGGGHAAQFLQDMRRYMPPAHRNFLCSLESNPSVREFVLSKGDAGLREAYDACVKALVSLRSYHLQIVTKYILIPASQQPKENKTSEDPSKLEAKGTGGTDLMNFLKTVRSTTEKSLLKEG
In words: In-vitro human indoleamine 2,3-dioxygenase 1 (IDO1) enzyme assay. The format is biochemical. The conditions noted are these: for inhibition at 1 µM: hIDO1 enzyme at 1.0 μM concentration; for inhibition at 10 µM: hIDO1 enzyme at 10.0 μM concentration; for IC50: hIDO1 enzyme. The method, then: In-vitro human indoleamine 2,3-dioxygenase 1 (IDO1) enzyme assay: In the in-vitro human indoleamine 2,3-dioxygenase 1 (hIDO1) enzyme assay for screening inhibitor compounds, hIDO1 with an N-terminal histidine tag expressed and purified from E. coli (BPS Bioscience, San Diego, Calif., USA) was used. All other materials were procured from Sigma-Aldrich, St. Louis, Mo., USA.
The assay method for monitoring the conversion of L-tryptophan to N-formylkynurenine by hlDO1 was carried out as follows. hlDO1 (50 ng) was incubated with tryptophan (80 μM) in the presence of ascorbic acid (10 mM), methylene blue (10 μM), catalase (100 μg/ml) and 0.01% Tween-20 in sodium phosphate buffer (50 mM; pH 6.5) at 37° C. for 60 min. The reaction was terminated with 200 mM piperidine (PIP) and further incubated at about 65° C. for about 20 minutes to convert N-formylkynurenine (NFK) to NFK-PIP. The reaction mixture was then incubated at room temperature for about 1 hour. The fluorescence intensity was read in a fluorescence microplate reader at an excitation wavelength of 400 nm and emission wavelength of 500 nm. Percent inhibition at each concentration of test compounds was determined by estimating the decrease in NFK-PIP. Data were analyzed using nonlinear regression to generate IC50 values using Graph Pad Prism® 6.

T1 sequence (P48775 whole entry): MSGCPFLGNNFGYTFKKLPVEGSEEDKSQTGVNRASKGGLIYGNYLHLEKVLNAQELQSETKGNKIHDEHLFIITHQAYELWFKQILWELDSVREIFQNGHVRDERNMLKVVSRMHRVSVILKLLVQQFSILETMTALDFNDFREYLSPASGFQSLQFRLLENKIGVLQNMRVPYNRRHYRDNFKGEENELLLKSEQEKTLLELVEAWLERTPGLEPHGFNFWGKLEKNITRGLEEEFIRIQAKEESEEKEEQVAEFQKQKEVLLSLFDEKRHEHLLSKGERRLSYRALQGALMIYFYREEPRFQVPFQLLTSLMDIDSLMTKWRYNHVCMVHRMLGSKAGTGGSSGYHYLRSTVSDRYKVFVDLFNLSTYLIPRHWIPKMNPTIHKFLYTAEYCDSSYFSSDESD

As a reminder, the inhibition is the share of the control response that was lost under treatment. As for `CC1=C(c2ccccc2)C(CC(O)C2CCN(C(=O)c3ccncc3)CC2)n2cncc21` (centres unmarked) [Example 162], the inhibition at 1 µM in assay [1] was ≤ 50%. Also, in assay [2], the inhibition at 1 µM was ≤ 50% and the inhibition at 10 µM is ≥ 50%.
As to `CC1=C(c2ccccc2)C(CC(=O)c2ccc(C3CCCCC3)cc2)n2cncc21` (centres unmarked) [Example 73], in assay [1], the inhibition at 1 µM was ≤ 50%. Moreover, in assay [2], the inhibition at 1 µM was ≤ 50% and the inhibition at 10 µM is ≥ 50%.
For `CC1=C(c2ccccc2)C(CC(O)C2CCN(C(=O)c3ccnc(C)c3)CC2)n2cncc21` (centres unmarked) [Example 164, {4-[1-Hydroxy-2-(7-methyl-6-phenyl-5H-pyrrolo[1,2-c]imidazol-5-yl)-ethyl]-piperidin-1-yl}-(2-methyl-pyridin-4-yl)-methanone], the inhibition at 1 µM in assay [1] and in assay [2] was ≤ 50% in each case. The inhibition at 10 µM in assay [2] is ≥ 50%.
The term IC50 denotes the midpoint of a concentration-inhibition curve. A low value points to higher potency. For the compound `CC1=C(c2ccccc2)C(CC(=O)c2ccc(Cl)cc2)n2cncc21` (centres unmarked) [Example 38, 1-(4-chlorophenyl)-2-(7-methyl-6-phenyl-5H-pyrrolo[1,2-c]imidazol-5-yl)ethan-1-one], the inhibition at 1 µM in assay [1] was ≥ 50%. In assay [2], the IC50 was < 500 nM, the inhibition at 1 µM is ≥ 50% and the inhibition at 10 µM was ≥ 50%.
`CC1=C(c2ccccc2)C(CC(O)c2ccc(C3CCCCC3)cc2)n2cncc21` (centres unmarked) [Example 74]: the inhibition at 1 µM in assay [1] and in assay [2] was ≤ 50% in each case. Also, the inhibition at 10 µM in assay [2] is ≥ 50%.
Take `CC1=C(c2ccccc2)C(C[C@H](O)C2CCC(C(=O)Nc3cccnc3)CC2)n2cncc21` (some centres unmarked) [Example 128]: the inhibition at 1 µM in assay [1] was ≥ 50%. In addition, in assay [2], the IC50 was < 500 nM, the inhibition at 1 µM was ≥ 50% and the inhibition at 10 µM is ≥ 50%.
On to `COC(=O)c1cccc(C(=O)CC2C(c3ccccc3)=C(C)c3cncn32)c1` (centres unmarked) [Example 23, 3-[2-(7-Methyl-6-phenyl-5H-pyrrolo[1,2-c]imidazol-5-yl)-acetyl]-benzoic acid methyl ester], for which, in assay [1], the inhibition at 1 µM was ≥ 50% and the inhibition at 10 µM was ≥ 50%. For the same compound, in assay [2], the inhibition at 1 µM was ≤ 50% and the inhibition at 10 µM was ≥ 50%.
Consider `CC1=C(c2ccccc2)C(CC(O)C2CCN(C(=O)Nc3ccc(F)c(Cl)c3)CC2)n2cncc21` (centres unmarked) [Example 182], for which, in assay [1], the inhibition at 1 µM was ≤ 50%. In assay [2], the IC50 is < 500 nM, the inhibition at 1 µM was ≥ 50% and the inhibition at 10 µM is ≥ 50%.
As to `CC1=C(c2ccccc2)C(CC(O)c2ccc(-c3ccccc3)cc2)n2cncc21` (centres unmarked) [Example 44, 1-([1,1′-biphenyl]-4-yl)-2-(7-methyl-6-phenyl-5H-pyrrolo[1,2-c]imidazol-5-yl)ethan-1-ol], the inhibition at 1 µM in assay [1] is ≥ 50%. In assay [2], the inhibition at 1 µM was ≥ 50% and the inhibition at 10 µM is ≥ 50%.
For `CC1=C(c2ccccc2)C(CC(=O)c2ccc(-c3ccc(C(F)(F)F)cc3)cc2)n2cncc21` (centres unmarked) [Example 61], in assay [1], the inhibition at 1 µM was ≤ 50%. In assay [2], the inhibition at 1 µM is ≤ 50% and the inhibition at 10 µM was ≥ 50%.
Turning to `COc1ccc(C2=C(C)c3cncn3C2CC(=O)C2CCCCC2)cc1` (centres unmarked) [Example 104], the inhibition at 1 µM in assay [1] is ≤ 50%. Besides, in assay [2], the inhibition at 1 µM was ≤ 50% and the inhibition at 10 µM is ≤ 50%.
On to `O=C(CC1C(c2ccccc2)=Cc2cncn21)c1ccccc1` (centres unmarked) [Example 169, 1-Phenyl-2-(6-phenyl-5H-pyrrolo[1,2-c]imidazol-5-yl)-ethanone], for which the inhibition at 10 µM in assay [1] and in assay [2] was ≥ 50% in each case. Moreover, the inhibition at 1 µM in assay [2] is ≤ 50%.
Consider `CCOC(=O)C1CCC([C@@H](O)CC2C(c3ccccc3)=C(C)c3cncn32)CC1` (stereo in doubt) [Example 189], for which the inhibition at 1 µM in assay [1] was ≥ 50%. Besides, in assay [2], the IC50 is < 500 nM, the inhibition at 1 µM was ≥ 50% and the inhibition at 10 µM was ≥ 50%.
As for `CC1=C(c2ccccc2)C(CC(O)C2CCN(C(=O)Nc3ccccc3)CC2)n2cncc21` (centres unmarked) [Example 158, 4-[1-Hydroxy-2-(7-methyl-6-phenyl-5H-pyrrolo[1,2-c]imidazol-5-yl)-ethyl]-piperidine-1-carboxylic acid phenyl amide], the inhibition at 1 µM in assay [1] is ≥ 50%. In assay [2], the IC50 was < 500 nM, the inhibition at 1 µM is ≥ 50% and the inhibition at 10 µM was ≥ 50%.
Consider `CC1=C(c2ccccc2)C(CC(=O)C2CCCN2C(=O)c2ccccc2)n2cncc21` (centres unmarked) [Example 115], for which the inhibition at 1 µM in assay [1] is ≤ 50%. Further, in assay [2], the inhibition at 1 µM was ≤ 50% and the inhibition at 10 µM was ≤ 50%.
In the case of `CC1=C(c2ccccc2)C(CC(=O)c2cccc(-c3ccccc3F)c2)n2cncc21` (centres unmarked) [Example 70], the inhibition at 1 µM in assay [1] was ≥ 50%. Further, in assay [2], the inhibition at 1 µM was ≥ 50% and the inhibition at 10 µM is ≥ 50%.
Regarding `CC1=C(c2ccccc2)C(CC(=O)c2cccc(Cl)c2)n2cncc21` (centres unmarked) [Example 17, 1-(3-Chloro-phenyl)-2-(7-methyl-6-phenyl-5H-pyrrolo[1,2-c]imidazol-5-yl)-ethanone], in assay [1], the inhibition at 1 µM is ≥ 50% and the inhibition at 10 µM is ≥ 50%. Also, in assay [2], the IC50 was < 500 nM, the inhibition at 1 µM was ≥ 50% and the inhibition at 10 µM is ≥ 50%.
For `CC1=C(c2ccccc2)C(CC(F)C2CCCCC2)n2cncc21` (centres unmarked) [Example 168, 5-(2-Cyclohexyl-2-fluoro-ethyl)-7-methyl-6-phenyl-5H-pyrrolo[1,2-c]imidazole], in assay [1], the inhibition at 1 µM is ≥ 50% and the inhibition at 10 µM was ≥ 50%. Moreover, in assay [2], the IC50 is > 500 nM, the inhibition at 1 µM is ≥ 50% and the inhibition at 10 µM is ≥ 50%.
On to `CC1=C(c2ccccc2)C(CC(O)c2ccc(Br)cc2)n2cncc21` (centres unmarked) [Example 52, 1-(4-bromophenyl)-2-(7-methyl-6-phenyl-5H-pyrrolo[1,2-c]imidazol-5-yl)ethan-1-ol], for which the inhibition at 1 µM is ≥ 50% in assay [1] and ≤ 50% in assay [2]. Also, in assay [2], the inhibition at 10 µM is ≥ 50%.
Turning to `CC1=C(c2ccccc2)C(CC(=O)c2ccc(C(=O)Nc3cccnc3)cc2)n2cncc21` (centres unmarked) [Example 79], the inhibition at 1 µM in assay [1] is ≥ 50%. Moreover, in assay [2], the IC50 was > 500 nM, the inhibition at 1 µM is ≥ 50% and the inhibition at 10 µM is ≥ 50%.
Regarding `CC1=C(c2ccccc2)C(CC(O)c2ccc(-c3ccncc3)cc2)n2cncc21` (centres unmarked) [Example 59], the inhibition at 1 µM in assay [1] and in assay [2] was ≤ 50% throughout. Besides, the inhibition at 10 µM in assay [2] is ≥ 50%.
For `CC1=C(c2ccccc2)C(CC(O)C2CCN(S(=O)(=O)C3CCCCC3)CC2)n2cncc21` (centres unmarked) [Example 163, 1-(1-Cyclohexanesulfonyl-piperidin-4-yl)-2-(7-methyl-6-phenyl-5H-pyrrolo[1,2-c]imidazol-5-yl)-ethanol], the inhibition at 1 µM in assay [1] was ≥ 50%. In assay [2], the IC50 is < 500 nM, the inhibition at 1 µM is ≥ 50% and the inhibition at 10 µM is ≥ 50%.
For `CC1=C(c2ccccc2F)C(CC(=O)C2CCC(O)CC2)n2cncc21` (single isomer, unassigned) [Example 97], the figures for the inhibition at 1 µM in assay [1] and in assay [2] were ≥ 50% and ≤ 50%, respectively.
Regarding `CC1=C(c2ccccc2)C(CC(=O)C2CCN(C(=O)C3CCCCC3)CC2)n2cncc21` (centres unmarked) [Example 147], the inhibition at 1 µM in assay [1] is ≤ 50%. Further, in assay [2], the inhibition at 1 µM was ≤ 50% and the inhibition at 10 µM was ≥ 50%.
